Here are results for one compound from PubChem BioAssay AID504738 (National Center for Advancing Translational Sciences (NCATS), 2011).

This data set concerns kinetic aqueous solubility, PBS pH 7.4, LC-UV/MS. The experiment in a line: Inhibitors of Bloom's syndrome helicase: Aqueous Profiling Assay. The text has this: Survival of cells and the faithful propagation of the genome depend on elaborate mechanisms of detecting and repairing DNA damage. Treatment of advanced cancer relies on radiation therapy or chemotherapy, which kill cancer cells by causing extensive DNA damage. It is often found, that cancer cells develop resistance to therapy through enhanced activity of DNA repair functions; this has led to an increased interest in developing drugs that interfere with DNA repair, which could sensitize cancer cells to conventional therapy. Bloom syndrome helicase (BLM), is important in resolving abnormal DNA structures formed during replication or homologous recombination. Shutting down the expression of BLM leads to chromosomal instability and higher radiation sensitivity in cultured cells. This bioassay provides profiling data on aqueous kinetic solubility (PBS @ pH 7.4) of one of the lead compounds developed in the APE1 inhibitors project. NIH Chemical Genomics Center [NCGC] NIH Molecular Libraries Probe Production Centers Network [MLPCN] MLSCN Grant: MH087284 PI Name: Dr. Opher Gileadi, Structural Genomics Consortium, University of Oxford, UK
1. 8ul of reference and test compound stock solution were added to 392ul 100mM phosphate buffer (pH 7.4) 2. Sample tubes were shaken for 1 hr (1000 rpm) at room temperature 3. […] Concentration of the supernatant was determined by LC-UV or LC-MS/MS

Each structure is given as a SMILES string.

As to `O=C(Nc1ccc(F)c(C(F)(F)F)c1)Nc1nnc(-c2ccncc2)s1`, the solubility is 2 µM.

One may read the solubility as the concentration that dissolves in the medium under given conditions.
